The values that follow come from patent US20190134148A1, “COMBINATION THERAPY” (BIG DNA LTD, priority 2016, published 2019).

In experiment [1] the test system is HEK293 cells. Briefly: Sulforhodamine B relative cell growth assay in HEK293 cells. As to conditions: HEK293 (αvβ3+ve); 10 μM proteasome inhibitor without cRGDfK. The class given is cell-based.
Procedure: Established methodology was used to prepare 80-100% confluent monolayers of HEK293 cells in T75 flasks. Cells were cultured in DMEM (Lonza) supplemented with 10% FBS (Gibco), 2 mM L-glutamine, 100 U/mL penicillin and 100 μg/mL streptomycin (“complete DMEM”).
The cells in T75 flasks were trypsinised and resuspended in complete DMEM. The cells were counted using a Neubauer chamber and seeded at approximate density of 3×10^4 cells/cm^2 and 7500 cells/cm^2 in 96 well flat bottomed tissue culture plates (Corning) 0.1 mL cell suspension per well. Cells were incubated for 24 hours at 37° C./5% CO2 (humidified). […]
Briefly: medium was removed from wells and replaced with an equal volume of PBS. […] Optical density (OD570nm) was determined using an ELISA plate reader (Dynex MRX, Dynex Technologies).
In total, 5 replicates of the experiment were carried out. Cells treated with peptide/BTZ mixtures or control mixtures were incubated for 24 hours at 37° C./5% CO2 (humidified) then analysed by sulforhodamine B assay.
The average of the background measurements (i.e. no cells, medium only) was subtracted from each reading. ‘Ti’ is OD570nm following 24 hours treatment with drugs. […]
Using these equations, control cell growth is assigned a relative cell growth value of 100% and all cell growth values are calculated relative to this figure. […]
The conditions of experiment [2]: phase II trials; heavily pretreated patient population; cited from earlier work.
The test system of experiment [3] is Cos7 cells. Briefly: Sulforhodamine B relative cell growth assay in Cos7 cells. The class given is cell-based. The settings on record: COS-7 (αvβ3−ve); 10 μM proteasome inhibitor without cRGDfK.
The test system of experiment [4] is chymotrypsin-like activity of the proteasome. As to conditions: highest dose used in the phase I trial; cited from earlier work.
The target of experiment [5] is chymotrypsin-like sites (Homo sapiens, UniProt P28074). As to conditions: cited from earlier work.
chymotrypsin-like sites, sequence (P28074 60-263): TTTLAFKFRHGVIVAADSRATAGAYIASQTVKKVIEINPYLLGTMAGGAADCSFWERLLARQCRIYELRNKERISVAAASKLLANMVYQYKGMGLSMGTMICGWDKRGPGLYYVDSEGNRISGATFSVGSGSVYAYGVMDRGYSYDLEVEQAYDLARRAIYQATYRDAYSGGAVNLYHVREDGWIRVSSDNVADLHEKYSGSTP

With `CC(C)C[C@H](NC(=O)[C@H](CCc1ccccc1)NC(=O)CN1CCOCC1)C(=O)N[C@@H](Cc1ccccc1)C(=O)N[C@@H](CC(C)C)C(=O)[C@@]1(C)CO1` [Carfilzomib], the “Growth relative to untreated control cells” value in experiment [1] is “greater activity than ixazomib, delanzomib and oprozomib”; in experiment [3], “greater activity than ixazomib, delanzomib and oprozomib”. Also, the partial response rate in experiment [2] was 24%. The “inhibition of the chymotrypsin-like activity of the proteasome in blood of patients” value in experiment [4] is 88%.

For `C[C@@]12OC(=O)[C@]1([C@@H](O)[C@@H]1C=CCCC1)NC(=O)[C@@H]2CCCl` [Marizomib], in experiment [5], the “inhibition of the chymotrypsin-like sites” value is “up to 100%”.
